Assay results reported in patent publication US20230181614A1, “ADMINISTRATION OF CITICOLINE TO IMPROVE COGNITIVE PERFORMANCE, ATTENTIONAL PERFORMANCE, AND MOTOR FUNCTION” (KYOWA HAKKO BIO CO., LTD., priority 2014, published 2023).
“And” between values parts separate entries of the source, which are not always exact repeats. Equal entries are not always repeated.

System: Healthy subjects, ages 13-18
Test: Exercise and Life Style Questionnaire
Assay type: in vivo, human
Design: scale not given here
Settings: for Alcohol Q10 V1 Mean / Alcohol Q11 V1 Mean / Alcohol Q12 V1 Mean / Alcohol Total V1 Mean / Appetite Q5 V1 Mean / Appetite Q6 V1 Mean / Appetite Total V1 Mean / Exercise Q1 V1 Mean / Exercise Q2 V1 Mean / Exercise Q3 V1 Mean / Exercise Q4 V1 Mean / Exercise Total V1 Mean / Smoke Q7 V1 Mean / Smoke Q8 V1 Mean / Smoke Q9 V1 Mean / Smoke Total V1 Mean: Visit 1; for Alcohol Q10 V3 Mean / Alcohol Q11 V3 Mean / Alcohol Q12 V3 Mean / Alcohol Total V3 Mean / Appetite Q5 V3 Mean / Appetite Q6 V3 Mean / Appetite Total V3 Mean / Exercise Q1 V3 Mean / Exercise Q2 V3 Mean / Exercise Q3 V3 Mean / Exercise Q4 V3 Mean / Exercise Total V3 Mean / Smoke Q7 V3 Mean / Smoke Q8 V3 Mean / Smoke Q9 V3 Mean / Smoke Total V3 Mean: Visit 3
From the text: Study participants were screened by telephone prior to study enrollment. Healthy subjects, ages 13-18, with no significant medical conditions and no history of co-morbid psychiatric disorder, current Axis I or II diagnosis, or previous participation in a pharmacotherapeutic trial, were selected. Use of any psychotropic medication or any previous head injury resulting in loss of consciousness for 5 or more minutes were used as exclusion criteria. While no participant met criteria for a neuropsychiatric disorder at enrollment, clinical assessments were still completed throughout the study to evaluate changes in mood state. In addition, self-reports of sleep habits, lifestyle, and exercise routines were also administered at baseline as well as at each study visit to assess changes in health habits during study participation. Following the completion of Visit 1 assessment, participants were given their 28-day supply of citicoline (250 mg or 500 mg) or placebo, which was randomly assigned. They were instructed to take one capsule a day every day for the next 28 days. Visit 2 occurred fourteen days after Visit 1. At Visit 2, the remaining study pills were counted and participant dosage calendars were checked to ensure compliance with the protocol. Additional neuropsychological measures and clinical assessments were administered during this visit. Participants returned for Visit 3 fourteen days later, on the 28th day of their study participation. The pill bottle and the dosage calendar were collected from each participant. Urine and blood were again obtained. Participants also participated in similar clinical and neuropsychological testing and clinical measures that were given during visit 1. The General Questionnaire and Exercise and Life Style Questionnaire are self-report questionnaires designed to assess a variety of symptoms, behaviors, and self-perceptions, including mood, complexion, exercise, food, and alcohol habits of each of the participants. The General Questionnaire was administered during each of the three study visits; the Exercise and Life Style Questionnaire was administered during each of the three study visits. The Exercise/Lifestyle Questionnaire included four summary categories (Exercise, Appetite, Smoke, and Alcohol), each of which consisted of multiple individual items. Within and between group analyses are reported below for each of the summary categories.

For `C[N+](C)(C)CCOP(=O)(O)OP(=O)([O-])OC[C@H]1O[C@@H](n2ccc(N)nc2=O)[C@H](O)[C@@H]1O` [citicoline, Cytidine 5′-diphosphocholine], the “Alcohol Total V3-V1 Mean” value (250 mg/day) was 0.00, the “Appetite Total V3-V1 Mean” value (250 mg/day) was -0.59 and the “Exercise Total V3-V1 Mean” value (250 mg/day) was -0.78. The “Smoke Total V3-V1 Mean” value (250 mg/day) was -0.07, the “Alcohol Q10 V1 Mean” value (250 mg/day) was 0.07 and the “Alcohol Q11 V1 Mean” value (250 mg/day) was 1.00. The “Alcohol Q12 V1 Mean” value (250 mg/day) was 1.00, the “Alcohol Total V1 Mean” value (250 mg/day) was 2.07 and the “Appetite Q5 V1 Mean” value (250 mg/day) was 4.11. The “Appetite Q6 V1 Mean” value (250 mg/day) was 4.44, the “Appetite Total V1 Mean” value (250 mg/day) was 8.56 and the “Exercise Q1 V1 Mean” value (250 mg/day) was 1.15. For the same compound, the “Exercise Q2 V1 Mean” value (250 mg/day) was 6.35, the “Exercise Q3 V1 Mean” value (250 mg/day) was 3.56 and the “Exercise Q4 V1 Mean” value (250 mg/day) was 3.81. The “Exercise Total V1 Mean” value (250 mg/day) was 14.87, the “Smoke Q7 V1 Mean” value (250 mg/day) was 0.00 and the “Smoke Q8 V1 Mean” value (250 mg/day) was 1.00. The “Smoke Q9 V1 Mean” value (250 mg/day) was 1.07, the “Smoke Total V1 Mean” value (250 mg/day) was 2.08 and the “Alcohol Q10 V3 Mean” value (250 mg/day) was 0.07. The “Alcohol Q11 V3 Mean” value (250 mg/day) was 1.00, the “Alcohol Q12 V3 Mean” value (250 mg/day) was 1.00 and the “Alcohol Total V3 Mean” value (250 mg/day) was 2.07. The “Appetite Q5 V3 Mean” value (250 mg/day) was 4.15, the “Appetite Q6 V3 Mean” value (250 mg/day) was 3.81 and the “Appetite Total V3 Mean” value (250 mg/day) was 7.96. The “Exercise Q1 V3 Mean” value (250 mg/day) was 1.07, the “Exercise Q2 V3 Mean” value (250 mg/day) was 6.80 and the “Exercise Q3 V3 Mean” value (250 mg/day) was 3.11. The “Exercise Q4 V3 Mean” value (250 mg/day) was 3.11, the “Exercise Total V3 Mean” value (250 mg/day) was 14.09 and the “Smoke Q7 V3 Mean” value (250 mg/day) was 0.00. The “Smoke Q8 V3 Mean” value (250 mg/day) was 1.00, the “Smoke Q9 V3 Mean” value (250 mg/day) was 1.00 and the “Smoke Total V3 Mean” value (250 mg/day) was 2.00. For the same compound, the “Alcohol Total V3-V1 Mean” value (500 mg/day) was 0.00, the “Appetite Total V3-V1 Mean” value (500 mg/day) was -0.83 and the “Exercise Total V3-V1 Mean” value (500 mg/day) was -2.78. The “Smoke Total V3-V1 Mean” value (500 mg/day) was 0.00, the “Alcohol Q10 V1 Mean” value (500 mg/day) was 0.00 and the “Alcohol Q11 V1 Mean” value (500 mg/day) was 1.00. For the same compound, the “Alcohol Q12 V1 Mean” value (500 mg/day) was 1.00, the “Alcohol Total V1 Mean” value (500 mg/day) was 2.00 and the “Appetite Q5 V1 Mean” value (500 mg/day) was 3.96. The “Appetite Q6 V1 Mean” value (500 mg/day) was 3.25, the “Appetite Total V1 Mean” value (500 mg/day) was 7.21 and the “Exercise Q1 V1 Mean” value (500 mg/day) was 1.17. The “Exercise Q2 V1 Mean” value (500 mg/day) was 8.50, the “Exercise Q3 V1 Mean” value (500 mg/day) was 3.71 and the “Exercise Q4 V1 Mean” value (500 mg/day) was 3.75. The “Exercise Total V1 Mean” value (500 mg/day) was 17.24, the “Smoke Q7 V1 Mean” value (500 mg/day) was 0.00 and the “Smoke Q8 V1 Mean” value (500 mg/day) was 1.00. For the same compound, the “Smoke Q9 V1 Mean” value (500 mg/day) was 1.00, the “Smoke Total V1 Mean” value (500 mg/day) was 2.00 and the “Alcohol Q10 V3 Mean” value (500 mg/day) was 0.00. For the same compound, the “Alcohol Q11 V3 Mean” value (500 mg/day) was 1.00, the “Alcohol Q12 V3 Mean” value (500 mg/day) was 1.00 and the “Alcohol Total V3 Mean” value (500 mg/day) was 2.00. For the same compound, the “Appetite Q5 V3 Mean” value (500 mg/day) was 3.50, the “Appetite Q6 V3 Mean” value (500 mg/day) was 2.88 and the “Appetite Total V3 Mean” value (500 mg/day) was 6.38. The “Exercise Q1 V3 Mean” value (500 mg/day) was 1.13, the “Exercise Q2 V3 Mean” value (500 mg/day) was 7.54 and the “Exercise Q3 V3 Mean” value (500 mg/day) was 2.96. The “Exercise Q4 V3 Mean” value (500 mg/day) was 2.75, the “Exercise Total V3 Mean” value (500 mg/day) was 14.46 and 14.48 and the “Smoke Q7 V3 Mean” value (500 mg/day) was 0.00. The “Smoke Q8 V3 Mean” value (500 mg/day) was 1.00, the “Smoke Q9 V3 Mean” value (500 mg/day) was 1.00 and the “Smoke Total V3 Mean” value (500 mg/day) was 2.00.
